Measured values as given in PMC10141580, “Cyclic Dichalcogenides Extend the Reach of Bioreductive Prodrugs to Harness Thiol/Disulfide Oxidoreductases: Applications to seco-Duocarmycins Targeting the Thioredoxin System” (ACS Central Science, 2023).
“And” between values parts separate entries of the source, which are not always exact repeats. Equal values may be shown once. Read-outs that look alike come from different tables or passages of the source.

Test system: panel of 140 standard cancer cell lines
Assay: ProliFiler-140 cancer cell line screen (CellTiterGlo, 72 h)
Type: cell-based
Protocol: Incubations were performed for 72 h before automated viability readout with CellTiterGlo (Figure 8).
End of Figure S11 (part 5 of 5): ProliFiler-140 cancer cell line screening for cytotoxicity of the prodrugs.
8-data-point dose response curves from CellTiter-Glo® viability readout.
ProliFiler-140 cell line panel part V

For COc1cc2cc(C(=O)N3C[C@@H](CCl)c4c3cc(OC(=O)N3CCN(C(=O)CCC(=O)N5CCN(C)CC5)[C@H]5CSSC[C@H]53)c3ccccc43)[nH]c2c(OC)c1OC [P-SS66C-CBI-TMI], the “Reductive Activation Index” value (KG-1 a (Blood)) was 5.16, the “Reductive Activation Index” value (Kato III (Stomach)) was 7.4 and the “Reductive Activation Index” value (LN229 (Brain)) was 5.44. The IC50 (LOU-NH91, read-out: IC50 [M] (ProliFiler-140), LOU-NH91 (Lung)) was 3.5e-08 M, the “Reductive Activation Index” value (LnCap (Prostate)) was 33 and the “Reductive Activation Index” value (M07e (Blood)) was 4.26. The IC50 (M-07e, read-out: IC50 [M] (ProliFiler-140), M07e (Blood)) was 3.25e-08 M, the “Reductive Activation Index” value (MCAS (Ovary)) was 5.9 and 5.91 and the “Reductive Activation Index” value (MDA MB 231 (Breast)) was 5.44. The “Reductive Activation Index” value (MDA MB 435 (Skin)) was 8.6, the IC50 (MDA MB 435 (Skin); read-out: IC50 [M] (ProliFiler-140)) was 1.26e-07 M and the “Reductive Activation Index” value (MKN-1 (Stomach)) was 11.1. For the same compound, the “Reductive Activation Index” value (MKN-45 (Stomach)) was 5.93, the “Reductive Activation Index” value (Mia PaCA 2 (Pancreas)) was 4.38 and the “Reductive Activation Index” value (NALM-6 (Blood)) was 22.62 and 23. The “Reductive Activation Index” value (NCI-H82 (Lung)) was 8.5, the “Reductive Activation Index” value (NCI-H441 (Lung)) was 5.81 and the “Reductive Activation Index” value (NCI-H838 (Lung)) was 10. The “Reductive Activation Index” value (NCI-H1563 (Lung)) was 15, the “Reductive Activation Index” value (NCI-H1573 (Lung)) was 12 and the “Reductive Activation Index” value (NCI-H1703 (Lung)) was 16. For the same compound, the “Reductive Activation Index” value (NCI-H1838 (Lung)) was 11, the IC50 (NCI-H2110, read-out: IC50 [M] (ProliFiler-140), NCI-H2110 (Lung)) was 1.8e-08 M and the “Reductive Activation Index” value (NCI-N87 (Stomach)) was 15. For the same compound, the “Reductive Activation Index” value (OCI-AML5 (Blood)) was 5.7 and 5.67, the “Reductive Activation Index” value (OCI-LY19 (Blood)) was 5.41 and the “Reductive Activation Index” value (OPM-2 (Blood)) was 25.37. For the same compound, the “Reductive Activation Index” value (OV56 (Ovary)) was 2.79, the IC50 (OV56, read-out: IC50 [M] (ProliFiler-140), OV56 (Ovary)) was 7.25e-08 M and the “Reductive Activation Index” value (OVCAR-3 (Ovary)) was 13. The “Reductive Activation Index” value (OVK18 (Ovary)) was 4.38, the IC50 (OVK18, read-out: IC50 [M] (ProliFiler-140), OVK18 (Ovary)) was 4.57e-08 M and the “Reductive Activation Index” value (PANC-1 (Pancreas)) was 6.9. For the same compound, the “Reductive Activation Index” value (RERF-LC-Ad2 (Lung)) was 5.5 and 5.54, the IC50 (RERF-LC-Ad2, read-out: IC50 [M] (ProliFiler-140), RERF-LC-Ad2 (Lung)) was 1.4e-07 M and the “Reductive Activation Index” value (RL95-2 (Endometrium)) was 5.93. For the same compound, the “Reductive Activation Index” value (SCLC-21H (Lung)) was 6.16, the “Reductive Activation Index” value (SJSA-1 (Bone)) was 3.87 and the “Reductive Activation Index” value (SK-MEL-3 (Skin)) was 6.6. The “Reductive Activation Index” value (SK-N-FI (Brain)) was 4.91, the “Reductive Activation Index” value (SK-N-SH (Brain)) was 6.5 and the “Reductive Activation Index” value (SNU840 (Ovary)) was 1.11. For the same compound, the “Reductive Activation Index” value (SNU-216 (Stomach)) was 19.98 and 20, the IC50 (SNU-216, read-out: IC50 [M] (ProliFiler-140), SNU-216 (Stomach)) was 9.22e-08 M and the IC50 (SNU-840, read-out: IC50 [M] (ProliFiler-140), SNU840 (Ovary)) was 6.29e-08 M. For the same compound, the “Reductive Activation Index” value (SU-DHL-5 (Blood)) was 19 and 19.50, the “Reductive Activation Index” value (SW480 (Colon)) was 6.01 and the “Reductive Activation Index” value (SW620 (Colon)) was 4.55. The “Reductive Activation Index” value (SW948 (Colon)) was 4.75, the “Reductive Activation Index” value (Saos-2 EC (Bone)) was 3.52 and the “Reductive Activation Index” value (SiHa (Ovary)) was 5.41. For the same compound, the “Reductive Activation Index” value (T84 (Colon)) was 5.69 and 5.7, the “Reductive Activation Index” value (T-47D (Breast)) was 11 and the “Reductive Activation Index” value (U2OS (Bone)) was 4.10. The “Reductive Activation Index” value (U87MG (Brain)) was 8.0, the “Reductive Activation Index” value (U118MG (Brain)) was 2.11 and the “Reductive Activation Index” value (U251MG (Brain)) was 17. The “Reductive Activation Index” value (U-937 (Blood)) was 6.40, the “Reductive Activation Index” value (ZR-75-1 (Breast)) was 4.62 and 4.6 and the IC50 (read-out: IC50 [M] (ProliFiler-140), BEN (Lung)) was 5.3e-08 M. For the same compound, the IC50 (read-out: IC50 [M] (ProliFiler-140), H4 (Brain)) was 1.39e-08 M, the IC50 (read-out: IC50 [M] (ProliFiler-140), Hep3B2.1-7 (Liver)) was 1.7e-07 M and the IC50 (read-out: IC50 [M] (ProliFiler-140), J82 (Bladder)) was 9.55e-08 M. For the same compound, the IC50 (read-out: IC50 [M] (ProliFiler-140), KG-1 (Blood)) was 1.92e-07 M, the IC50 (read-out: IC50 [M] (ProliFiler-140), LP-1 (Blood)) was 1e-07 M and the IC50 (read-out: IC50 [M] (ProliFiler-140), MCAS (Ovary)) was 1.4e-07 M. The IC50 (read-out: IC50 [M] (ProliFiler-140), PC3 (Prostate)) was 4.01e-08 M, the IC50 (read-out: IC50 [M] (ProliFiler-140), PC-9 (Lung)) was 1.4e-08 M and the IC50 (read-out: IC50 [M] (ProliFiler-140), RERF-LC-MS (Lung)) was 3.07e-08 M. For the same compound, the IC50 (read-out: IC50 [M] (ProliFiler-140), RKO (Colon)) was 2.13e-08 M, the IC50 (read-out: IC50 [M] (ProliFiler-140), SCH (Stomach)) was 1.5e-08 M and the IC50 (read-out: IC50 [M] (ProliFiler-140), T84 (Colon)) was 1.6e-07 M. The IC50 (read-out: IC50 [M] (ProliFiler-140); 786-O (Kidney)) was 2.9e-08 M, the IC50 (read-out: IC50 [M] (ProliFiler-140); A375 (Skin)) was 5.5e-08 M and the IC50 (read-out: IC50 [M] (ProliFiler-140); A427 (Lung)) was 4.42e-08 M. For the same compound, the IC50 (read-out: IC50 [M] (ProliFiler-140); A431 (Skin)) was 2e-08 M, the IC50 (read-out: IC50 [M] (ProliFiler-140); A498 (Kidney)) was 9.4e-08 M and the IC50 (read-out: IC50 [M] (ProliFiler-140); A549 (Lung)) was 3.03e-08 M. The IC50 (read-out: IC50 [M] (ProliFiler-140); A2058 (Skin)) was 1.09e-08 M, the IC50 (read-out: IC50 [M] (ProliFiler-140); A2780 (Ovary)) was 8.13e-09 M and the IC50 (read-out: IC50 [M] (ProliFiler-140); AsPC-1 (Pancreas)) was 2.62e-07 M. The IC50 (read-out: IC50 [M] (ProliFiler-140); BEN (Lung)) was 5.35e-08 M and the IC50 (read-out: IC50 [M] (ProliFiler-140); BT-20 (Breast)) was 1.22e-07 M.
